From patent publication US20230331679A1, “NAPHTHALENE MONOIMIDE COMPOUNDS AND METHODS THEREOF” (JAWAHARLAL NEHRU CENTRE FOR ADVANCED SCIENTIFIC RESEARCH, priority 2020, published 2023)

Legend:
Aβ42 = biological target: T1, Aβ42 (Homo sapiens, UniProt P05067); assay: ThT binding assay, inhibition of Aβ42 fibrillar assembly; type: biochemical; conditions: for inhibitory effect on Aβ42 aggregation (ThT NFI at 482 nm): 1:1 molar ratio, 10 µM Aβ42, 10 µM inhibitor, 72 h; for decrease in the formation of Aβ aggregates: Aβ42/inhibitor 1:1, Aβ42 10 µM; for decrease in the formation of Aβ aggregates / Aβ aggregation decreased to: third day of incubation
T1 construct: commercially available β-amyloid peptide (1-42), human; purchased marck (so in the source) PP69-.025 mg
Method: (§1) Monomeric form of Aβ42 peptide was prepared by dissolving 0.25 mg of commercially available β-amyloid peptide (1-42), human (cat: PP69-.025 mg), marck peptide in 250 µL of hexafluoro-2-propanol (HFIP) solvent to obtain a Aβ42 solution. This solution was incubated at room temperature for 1 hour, further to which the HFIP solvent was removed by nitrogen gas flow to obtain the monomeric Aβ42 peptide. To prepare a fibrillar sample of Aβ42 peptide, 0.025 mg of Aβ42 peptide was dissolved in […] of PBS buffer (pH = 7.4; contains 2% of DMSO or 100 mM NaOH) to obtain a monomeric Aβ42 solution and the peptide concentration in this solution was calculated through UV-Visible absorbance studies (ε = 1450 cm^-1 M^-1). The Aβ42 monomeric solution was incubated for 5 days in PBS buffer (pH = 7.4) to allow for the full phase formation of Aβ42 fibrils. The presence of Aβ42 fibrils was further confirmed by ThT assay.
Initially, the ability of the prepared NMI compounds, TGR63-68 to inhibit Aβ42 fibrillar assembly at 1:1 molar ratio with Aβ42 fibrils was evaluated using thioflavin (ThT) binding assay. 10 µM of Aβ42 fibrils in the absence (Ctrl) and the presence of 10 µM of inhibitors individually were incubated for 72 h. A normalized data for fluorescence intensity (NFI) of ThT at 482 nm (λex = 442 nm) was measured as represented in FIG. 1(a).
(§2) The ability of NMI compounds (TGR63, TGR64 and TGR65) to prevent Aβ42 fibrillar assembly (inhibition) and to break down the preformed fibrils (dissolution) was evaluated using thioflavin (ThT) binding assay. Aβ42 fibrils at a concentration of 10 µM and its aggregates, were used to study the effect of NMI compounds (TGR63, TGR64 and TGR65) at varying concentrations on both inhibition and dissolution assays. For the inhibition assay, all the NMI compounds (TGR63, TGR64 and TGR65) were added independently to Aβ peptide (10 µM) at 0 h of the experiment, whereas for the aggregates dissolution assay they were added to Aβ42 fibrillar aggregates grown for 2 days. Upon incubating for a predetermined period, Aβ42 inhibitor samples were analyzed using ThT by measuring the fluorescence change at 485 nm as presented in FIG. 1(b) and FIG. 1(c), wherein the error bars represent the standard deviation (SD) of the fluorescence measurement. Fluorescence values were normalized to maximal fluorescence intensity at 485 nm compared to that of the control (Aβ42 with no inhibitor). Experiments were performed at various stoichiometric ratios (Aβ42/inhibitor) of 1:1, 1:2, and 1:5 with a fixed concentration of Aβ42 at 10 µM. Each experiment was repeated three times (n = 3). […] TGR 63 recorded 80% dissolution efficiency while TGR 64 and TGR 65 recorded 75% and 78% dissolution efficiency respectively, for the stoichiometric ratio of 1:5.

PC12 cells = assay: Rescue of PC12 cells from Aβ42 toxicity (MTT cell viability assay); conditions: for enhancement in the viability of cells from Aβ toxicity: versus Aβ42 alone (54%); for viability at 40 µM: Rattus norvegicus, PC-12, 24 h, read-out: cell viability, PC12 cells, Aβ42 20 µM + compound 40 µM, 24 h
Method: A 96-well plate was used to culture the cells (15,000 per well) with RPMI media (10% fetal bovine serum (FBS), 5% horse serum (HS,), and 1% pen-strep (PS)) at 37° C. temperature in a 5% CO2 atmosphere. Then the media was exchanged with low serum (2% FBS) media and monomeric Aβ42 was added in the absence and presence of NMI compounds and incubated for 24 h.
The structure-activity relationship (SAR) of NMI compounds towards rescuing PC12 cells from Aβ toxicity was investigated. […] Each experiment was repeated three times (n = 3), and error bars represent the standard deviation (SD).
An Alzheimer’s disease-like environment was mimicked by exposing the cultured PC12 cells to 20 µM of Aβ42 fibrils, which formed cytotoxic aggregation species in the growth media.

[1] = biological target: T2, Aβ42 fibrillar aggregates (Homo sapiens, UniProt P05067); assay: ThT binding assay, dissolution of preformed Aβ42 fibrils; type: biochemical; conditions: after sixth day of incubation
T2 construct: commercially available β-amyloid peptide (1-42), human; purchased marck (so in the source) PP69-.025 mg
Method: as §1, §2

α-Syn = α-Syn (Homo sapiens, UniProt P37840); assay: ThT binding assay, α-Syn aggregation inhibition; type: biochemical
Text: Parkinson’s disease (PD) is a neuronal disorder, mainly affects the motor system. α-Syn is a presynaptic neuronal protein that is linked neuropathologically to PD plays a vital role in the pathogenesis in a number of ways. Self-aggregation of α-Syn to form fibrillar aggregates and these toxic species mediate disruption of cellular homeostasis and cause neuronal death. These toxic aggregates affect various intracellular targets, especially synaptic function. In this context, NMI compounds of the present disclosure were used to study the possible modulation of α-Syn aggregation. The effect of NMI compounds (TGR63 and TGR64) on α-syn (100 µM) aggregation inhibition was studied through ThT binding assay. Experiments were performed at stoichiometric ratios (α-Syn:inhibitor) of 1:1, 1:2, and 1:5 with the fixed concentration of α-Syn at 100 µM.

T2 sequence (P05067 672-713 limits assumed): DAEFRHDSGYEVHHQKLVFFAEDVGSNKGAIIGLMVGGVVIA
T1 sequence (P05067 672-713 limits assumed): as above

inhibitory effect on Aβ42 aggregation (ThT NFI at 482 nm) (Aβ42)	decrease in the formation of Aβ aggregates (Aβ42)	Aβ aggregation decreased to (Aβ42; Aβ42/inhibitor 1:2, Aβ42 10 µM) [%]	Aβ aggregation decreased to (Aβ42; Aβ42/inhibitor 1:5, Aβ42 10 µM) [%]	dissolution efficiency ([1]; Aβ42/inhibitor 1:1, Aβ42 10 µM)	dissolution efficiency ([1]; Aβ42/inhibitor 1:2, Aβ42 10 µM)	dissolution efficiency ([1]; Aβ42/inhibitor 1:5, Aβ42 10 µM) [%]	decrease in the formation of α-Syn aggregates (α-Syn; α-Syn:inhibitor 1:1, α-Syn 100 µM)	α-Syn aggregation decreased to (α-Syn; α-Syn:inhibitor 1:2, α-Syn 100 µM) [%]	α-Syn aggregation decreased to (α-Syn; α-Syn:inhibitor 1:5, α-Syn 100 µM) [%]	SMILES	enhancement in the viability of cells from Aβ toxicity (PC12 cells; PC12 cells)	viability at 40 µM (PC12 cells; Aβ42 alone 54%, untreated 100%) [%]	cell viability (PC12 cells; PC12 cells, Aβ42 20 µM + compound 40 µM, 24 h, Aβ42 alone 54%, untreated 100%) [%]
~5%										C[N+](C)(C)CCN1C(=O)c2cccc3c(C#Cc4ccccc4)ccc(c23)C1=O [TGR68, 2-(1,3-dioxo-6-(phenylethynyl)-1H-benzo[de]isoquinolin-2(3H)-yl)-N,N,N-trimethylethan-1-aminium]	~8%		
~7%										CN(C)c1ccc2c3c(cccc13)C(=O)N(CC[N+](C)(C)C)C2=O [TGR67, 2-(6-(dimethylamino)-1,3-dioxo-1H-benzo[de]isoquinolin-2(3H)-yl)-N,N,N-trimethylethan-1-aminium]	~22%		

Continued, molecule first:

SMILES	inhibitory effect on Aβ42 aggregation (ThT NFI at 482 nm) (Aβ42)	decrease in the formation of Aβ aggregates (Aβ42)	Aβ aggregation decreased to (Aβ42; Aβ42/inhibitor 1:2, Aβ42 10 µM) [%]	Aβ aggregation decreased to (Aβ42; Aβ42/inhibitor 1:5, Aβ42 10 µM) [%]	dissolution efficiency ([1]; Aβ42/inhibitor 1:1, Aβ42 10 µM)	dissolution efficiency ([1]; Aβ42/inhibitor 1:2, Aβ42 10 µM)	dissolution efficiency ([1]; Aβ42/inhibitor 1:5, Aβ42 10 µM) [%]	decrease in the formation of α-Syn aggregates (α-Syn; α-Syn:inhibitor 1:1, α-Syn 100 µM)	α-Syn aggregation decreased to (α-Syn; α-Syn:inhibitor 1:2, α-Syn 100 µM) [%]	α-Syn aggregation decreased to (α-Syn; α-Syn:inhibitor 1:5, α-Syn 100 µM) [%]	enhancement in the viability of cells from Aβ toxicity (PC12 cells; PC12 cells)	viability at 40 µM (PC12 cells; Aβ42 alone 54%, untreated 100%) [%]	cell viability (PC12 cells; PC12 cells, Aβ42 20 µM + compound 40 µM, 24 h, Aβ42 alone 54%, untreated 100%) [%]
C[N+](C)(C)CCN1C(=O)c2cccc3cccc(c23)C1=O [TGR66, 2-(1,3-dioxo-1H-benzo[de]isoquinolin-2(3H)-yl)-N,N,N-trimethylethan-1-aminium]	~ 10%										~ 26%		
CN(C)c1ccc(C#Cc2ccc3c4c(cccc24)C(=O)N(CCOCCO)C3=O)cc1 [TGR65, 6-((4-(dimethylamino)phenyl)ethynyl)-2-(2-(2-hydroxyethoxy)ethyl)-1H-benzo[de]isoquinoline-1,3(2H)-dione]	~25%	~ 50%	75	90	~ 35%	~ 50%	78					62	
CN(C)c1ccc(C#Cc2ccc3c4c(cccc24)C(=O)N(CCN)C3=O)cc1 [TGR64, 2-(2-aminoethyl)-6-((4-(dimethylamino)phenyl)ethynyl)-1H-benzo[de]isoquinoline-1,3(2H)-dione]	~38%	~ 50%	75	90	~ 35%	~ 50%	75	~ 54%	72	77		78	76
